Results taken from article PMC12775434, “Ultra-large virtual screening unveils potent agonists of the neuromodulatory orphan receptor GPR139” (Nature Communications, 2025).
Read-outs that look alike come from different tables or passages of the source.

How the values were obtained:
[1] = parameters: method as in PMID 26349500; conditions: first hour after treatment; cited from earlier work
[2] = Bioanalysis of compounds in mouse plasma and brain; assay type: in vivo; conditions: one hour after 30 mg/kg i.p.; for concentration at 1 h: intraperitoneal
Description: Adult […] C57BL/6 J mice (3-6 months old) were provided by Charles River. Both females and males (15 females and 9 males) were used in this study. Sex was evenly distributed across experimental groups. Sex was not considered in the study design or analysis, as no reports indicate differential expression levels of GPR139 between male and female mice. They were housed with ad libitum food and water, in a temperature and humidity-controlled environment under a standard 12 h light/dark cycle. The experiments were performed in agreement with the European Council Directive (86/609/EEC) and approved by the local Animal Ethics Committee at Karolinska Institute (3218-2022). All efforts were made to minimize suffering and the number of animals used. Mice were treated with either 10% DMSO + 10% solutol HS-15 + 80% saline (vehicle, n = 8), compound 1.5 (n = 8, 30 mg/kg i.p.), or JNJ-63533054 (n = 8, 30 mg/kg i.p.), both of which were dissolved in 10% DMSO + 10% solutol HS-15 + 80% saline. Mice were placed in an open field arena 10 min after the injection and recorded for 50 min. Total distance travelled and the time spent in the periphery arena were measured using an automated video tracking system (EthoVision XT 11.5; Noldus). One-way ANOVA followed by Dunnett’s multiple comparisons test and Two-way ANOVA followed by Tukey’s multiple comparisons test were used. Brain and blood samples were taken immediately after the locomotion test. The brain samples were quickly frozen, and blood was drawn from the cervical vein upon decapitation into EP tubes. The samples were immediately centrifuged for 10 min at 3000 × g at 4 °C, and the plasma was transferred into clean polypropylene tubes. All samples were stored at −80 °C before analysis.
1.5(S) and JNJ-63533054, and the internal standard warfarin, were quantified in plasma and brain tissue samples, using ultraperformance liquid chromatography-tandem mass spectrometry (UPLC-MS/MS). Samples, respective blanks, standards, and quality controls (QCs) were included in each bioanalytical run. For both compounds, the calibration curves in plasma included standards at 0.5–10 µM, and QCs at 1.9–7.6 µM, and those in brain tissue homogenate included standards at 1–25 µM, and QCs at 1–20 µM.
Plasma samples were first diluted 1:2 (v:v) in blank plasma on a 96-well plate (Corning). Thereafter, the samples, along with blank plasma, standards, and QCs, were precipitated by adding 180 µL ice-cold acetonitrile containing 100 nM warfarin to 20 µL sample. Samples were vortexed and centrifuged at 2465 × g, at 4 °C, for 20 min (Centrifuge 5810 R, Eppendorf, Germany). The supernatants were transferred to a new 96-well plate and 2 µL were injected onto the UPLC-column. One hemisphere of the brains was homogenized 1:4 (w:v) with 0.1 % formic acid in 1:1 acetonitrile and methanol (v:v) in tubes containing ceramic beads (Precellys® Hard Tissue Homogenizing CK28 (inert 2.8 ceramic, zirconium oxide, beads), 2 mL, polypropylene co-polymer, Bertin Technologies). The mechanical homogenization was performed using a Minilys homogenizer (Bertin Technologies, France) for 30 s at the highest speed (5000 rpm). The tubes were centrifuged at 5204 × g for 7 min, and the supernatant was transferred to an Eppendorf tube. Subsequently, brain homogenate supernatants, along with supernatants from blank brain homogenate, standards, and QCs, were treated as described for diluted plasma samples. […]

concentration at 1 h ([2]; both sexes, C57BL/6 J, brain, read-out: total brain tissue concentration (Cbrain)): 24.8 µM | Kp at 1 h ([2]; both sexes, C57BL/6 J, brain/plasma, ip, single time point, read-out: total brain-to-plasma concentration ratio (Kp,brain)): 1.21 ± 0.12 | concentration at 1 h ([2]; both sexes, C57BL/6 J, plasma, read-out: total plasma concentration (Cplasma)): 20.5 µM | total brain tissue concentration (Cbrain) [2]: 24.8 ± 6.2 µM | total plasma concentration (Cplasma) [2]: 20.5 ± 5.3 µM
Compound: CC(NC(=O)CNC(=O)c1cccc(Cl)c1)c1ccccc1 (stereo not drawn) [JNJ-63533054, reference compound]
locomotor activity [1]: reduction in locomotor activity
